Assay results as given in publication PMC11969438 (Inorganic Chemistry Frontiers, 2025).

Key:
[1] = test system: THP1-Dual cells; assay: Cytokine and chemokine secretion in cell culture supernatant, Luminex; assay type: cell-based, human; conditions: 24 h
Procedure: Quantification of secreted protein targets in either cell culture SN or in plasma of treated animals was performed using a ProcartaPlex (96-well) multiplex assay panel (Thermo Fisher Scientific) in the xMAP detection platform (Luminex). For the in vitro detection of secreted proteins, THP1-Dual cells were seeded at 1 × 10^5 cells per well in 96-well plates in RPMI-1640 medium, supplemented with 10% FCS, L-glutamine and Pen-Strep. After 24 h of recovery, the compounds were applied at the concentrations indicated in triplicate.
After 24 h of drug incubation, the cell culture SN of technical triplicate was collected, pooled, centrifuged (400g, 10 min, 4 °C), transferred into a fresh tube, and stored at −20 °C.
Next, the ProcartaPlex (96-well) multiplex assay panel was performed according to the manufacturer's recommendations. In brief, the capture bead mix was incubated with test samples (undiluted SN or mouse plasma) or standard mix overnight. The SN of three independent experiments or the plasma of four animals per treatment group was loaded onto the multiplex assay plate. Next, biotinylated detection antibody mix and Streptavidin-PE were added to the plate. Following the recommended washing steps, the samples were incubated in a reading buffer and were measured using a Luminex xMAP platform (Bio-Plex MAGPIX Multiplex Reader; Bio-Rad Laboratories) and analyzed using xPONENT software.

[2] = test system: immune cell populations in tumor and spleen; assay: Immune activation and infiltration by flow cytometry; assay type: in vivo, CT-26-bearing BALB/c mice; conditions: 24 h after second dose
Procedure: Tumor size was determined daily via manual caliper measurement. […] Animals were euthanized via cervical dislocation.
The generation and treatment of tumor-bearing mice are outlined in the section “In vivo syngraft experiments” above. Samples were kept on ice during the whole procedure. Tissues were prepared as described previously.[55] In brief, tumor and spleen tissues were collected and mechanically dissociated in DPBS buffer containing Ca^2+/Mg^2+ and FCS (5%). Tumor samples were digested using collagenase VIII (1 mg mL^−1) in a DPBS buffer (without Ca^2+/Mg^2+) supplemented with DNAse I (1 mg mL^−1) for 15 min at 37 °C under constant shaking. Samples were filtered using 70 μm cell strainers in a DPBS buffer (without Ca^2+/Mg^2+) containing FCS (5%), EDTA (5 mM) and DNase I (20 μg mL^−1). Subsequent washing steps were performed in DPBS buffer (without Ca^2+/Mg^2+) containing FCS (5%), EDTA (5 mM) and DNase I (20 μg mL^−1), unless indicated otherwise. Red blood cells were removed by short incubation with ACK buffer. For blocking, samples were incubated with the Ultra-LEAF purified anti-mouse CD16/CD32 antibody (clone: 93; #101330; RRID:AB_2783037; dilution: 1 : 1000) (Biolegend, San Diego, CA, USA) in the BD Horizon Brilliant Stain Buffer (#563794; BD Biosciences) for 10 min. Next, the samples were incubated with an antibody mixture in the BD Horizon Brilliant Stain Buffer for 30 min. Fluorescent dye-labeled antibodies targeting murine CD3 (17A2; #100203; RRID:AB_312661; 1 : 50), CD8a (53-6.7; #100738; RRID:AB_11204079; 1 : 160), CD19 (6D5; #115528; RRID:AB_493735; 1 : 400), CD49b (DX5; #108924; RRID:AB_2565271; 1 : 229), CD11b (M1/70; #101228; RRID:AB_893232; 1 : 80), and CD69 (H1.2F3; # 104512; RRID:AB_493564; 1 : 40) were purchased from BioLegend. The antibody targeting murine CD4 (RM4-5; # 85-0042-U100; 1 : 80) and the viability dye Ghost Dye Red 780 (#13-0865-T100; 1 : 1000) were purchased from Tonbobio (San Diego, CA, USA). The antibody targeting CD45 (30-F11; #363-0451-82; RRID:AB_2925264; 1 : 80) was purchased from Life Tech (Invitrogen). For intracellular staining of granzyme B (GzmB) (QA16A02; #372208; RRID:AB_2687032; 1 : 20) and FoxP3 (MF-14; #320014; RRID:AB_439750; 1 : 100) the True-Nuclear Transcription Factor Buffer Set (Biolegend; #424401) was used according to the manufacturer's recommendations. In brief, samples were incubated with Perm Fix Solution for 60 min at RT. Next, the samples were stained with antibodies targeting GzmB and FoxP3 (diluted in Perm buffer) for 30 min at RT. […] Next day, the samples were analyzed using a Cytek Aurora 5L (Cytek Biosciences, CA, USA) spectral flow cytometer. Data were analyzed using SpectroFlo (v3.2.1) (Cytek Biosciences) and FlowJo (v10.8.1) (FlowJo LLC, Ashland, OR, USA) software.

[3] = test system: THP1-Dual cells; assay: Western blot analysis of STING downstream pathway, DNA damage and cell death markers; assay type: cell-based, human; conditions: 24 h
Procedure: The THP1-Dual cell model was seeded at 1 × 10^6 cells per well in six-well plates. After 24 h of recovery, the compounds were applied at the concentrations indicated. After 24 h of drug exposure, whole-cell protein isolation was performed as described previously.[14] Sodium dodecyl sulfate polyacrylamide gel electrophoresis was performed. Proteins were transferred onto polyvinylidene difluoride membranes (Thermo Scientific, Waltham, MA, USA). Antibodies targeting STING (##13 647; 1 : 1000), phospho-STING (#19 781; 1 : 500), TBK1 (#3504; 1 : 500), IRF-3 (#4302; 1 : 500), phospho-p65 (#3033; 1 : 500), ISG15 (#2743; 1 : 1000), caspase-3 (#9665; 1 : 1000), cleaved caspase-3 (#9661; 1 : 1000), PARP (#9532; 1 : 1000), and cleaved PARP (#9541; 1 : 1000) were purchased from Cell Signaling Technology (Danvers, MA, USA). The p65 antibody (#sc-372; 1 : 1000) was purchased from Santa Cruz and the phospho-H2A.X antibody (#05-636-I; 1 : 500) was obtained from Merck (Darmstadt, Germany). The anti-β-actin (#5441; 1 : 2000) antibody was obtained from Sigma-Aldrich. The anti-mouse IgG (#A0168; 1 : 10 000) horseradish peroxidase (HRP)-coupled secondary antibody was purchased from Sigma-Aldrich, and the anti-rabbit IgG (#7074; 1 : 5000) HRP-linked secondary antibody was obtained from Cell Signaling Technology.

SMILES | TNF-α and IFN-γ secretion ([1]; oxaliplatin 5 μM) | CD45+ cells among viable splenic cells [2] | splenic CD8+ T cells in the CD45+ cell population [2] | DNA damage (p-H2A.X upregulation, cleavage of caspase-3 and PARP) [3] | induction of ISG15 [3] | secretion of cytokines and chemokines ([1]; prodrug 100 μM, MSA-2 25 μM) | FoxP3+ CD4+ T cell compartment in the spleen [2]
O=C1[O][Pt]2([NH][C@@H]3CCCC[C@H]3[NH]2)[O]C1=O [oxaliplatin, reference compound] | activated predominantly by oxaliplatin | significantly upregulated | strongest effect | – | – | – | –
COCCOCCOCCOCCNC(=O)[O][Pt-2]12([O]C(=O)CCC(=O)c3cc4cc(OC)c(OC)cc4s3)([NH2+][C@@H]3CCCC[C@H]3[NH2+]1)[O]C(=O)C(=O)[O]2 [Ox-MSA-PEG-Ca, (OC-6-34)-[(1R,2R)-1,2-cyclohexanediamino]-oxalato-[4-(5,6-dimethoxybenzo[b]thiophen-2-yl)-4-oxobutylcarboxylato]-[3,6,9,12-tetraoxatridecan-1-amino]platinum(IV)] | – | – | – | induced DNA damage | triggered | induced distinct secretion of cytokines and chemokines | selectively elevated
COCCOCCOCCOCCC(=O)[O][Pt-2]12([O]C(=O)CCC(=O)c3cc4cc(OC)c(OC)cc4s3)([NH2+][C@@H]3CCCC[C@H]3[NH2+]1)[O]C(=O)C(=O)[O]2 [Ox-MSA-PEG-Es, (OC-6-44)-[(1R,2R)-1,2-cyclohexanediamino]-oxalato-[4-(5,6-dimethoxybenzo[b]thiophen-2-yl)-4-oxobutylcarboxylato]-[2,5,8,11-tetraoxatetradecanoato]platinum(IV)] | – | – | – | induced DNA damage | – | – | –
